From publication PMC12336824 (The Journal of Biological Chemistry, 2025)
Converted amounts (≈) assume the structure as drawn. Where two headings read alike, the source gives them in different places.

Experiments:
V. cholerae wildtype = tested on: V. cholerae wildtype; parameters: species or system mice; conditions: mouse, in vivo
V. cholerae NQR complex = V. cholerae NQR complex (Vibrio cholerae serotype O1, UniProt Q9KPS2+Q9X4Q6); test: biochemical; conditions: read-out: inhibition of the ubiquinone reductase activity
V. cholerae O395 [1] = test: microbe, parasite or virus in culture; assay type: cell-based; conditions: for effect on growth of V. cholerae: 50 μM, midlogarithmic phase (8 h), LB medium; for MIC50: 8 h
[2] = human
NDH-2 [3] = assay type: biochemical; conditions: 50 μM
V. cholerae O395 [4] = test: In vitro infection of T84 human intestinal cells, CFU of adherent and planktonic bacteria; assay type: cell-based; conditions: Vibrio cholerae
V. cholerae 2010EL-1786 = test: microbe, parasite or virus in culture; assay type: cell-based; conditions: Vibrio cholerae
NDH-2 [5] = assay type: biochemical; conditions: 50 μM; remark: listed apart in the source
[6] = single oral dose 25 mg/kg, M. tuberculosis infection model ref 31; cited from earlier work
[7] = cited from earlier work
[8] = tested on: wildtype V. cholerae membranes; assay type: biochemical; conditions: 50 μM
[9] = tested on: NADH dehydrogenases of V. cholerae membranes; assay type: biochemical; conditions: 50 μM, 200 μM NADH
V. cholerae 2012EL-2176 = test: microbe, parasite or virus in culture; assay type: cell-based; conditions: Vibrio cholerae
terminal oxidases = assay type: biochemical; conditions: 50 μM inhibitor, 50 μM UQ-1
cholera toxin = test: microbe, parasite or virus in culture; assay type: cell-based, Vibrio cholerae

SMILES: CC1(C)S[C@@H]2[C@H](NC(=O)[C@H](N)c3ccccc3)C(=O)N2[C@H]1C(=O)O [ampicillin]
- survival of infected mice (V. cholerae wildtype): almost twice

SMILES: CN(C)CCCN1c2ccccc2Sc2ccc(Cl)cc21 [chlorpromazine]
- inhibition at 50 µM (V. cholerae NQR complex): 20 to 40%
- effect on growth of V. cholerae (V. cholerae O395 [1]): antimicrobial properties

SMILES: CC(C)/N=c1\cc2n(-c3ccc(Cl)cc3)c3ccccc3nc-2cc1Nc1ccc(Cl)cc1 [clofazimine]
- estimated concentration that can reach the proximal section of the small intestine [2]: around 150 μM
- sensitivity of NADH-dependent ubiquinol reductase activity of Δnqr membranes (NDH-2 [3]): insensitive
- inhibition at 30 µM (V. cholerae O395 [4]; O395, T84, read-out: inhibition of the number of attached cells): > 75%
- inhibition at 30 µM (V. cholerae O395 [4]; O395, T84, read-out: inhibition of the number of planktonic cells): > 90%
- MIC (V. cholerae 2010EL-1786): 16 µM (≈ 7.57 µg/mL)
- inhibition of NDH-2 activity in membranes (NDH-2 [5]): insensitive
- peak serum concentration [6]: 0.43 µg/mL
- concentration in plasma [7]: submicromolar range
- sensitivity of activity of wildtype membranes [8]: sensitive
- inhibition of respiratory activity with NADH [9]: strong inhibitors
- MIC (V. cholerae 2012EL-2176): 16 µM (≈ 7.57 µg/mL)
- respiratory activity with ubiquinol-1 (terminal oxidases): not sensitive
- inhibition at 50 µM (V. cholerae NQR complex): 95%
- effect on growth of V. cholerae (V. cholerae O395 [1]): strong inhibitory effects
- MIC (V. cholerae O395 [1]; Vibrio cholerae): 5 µM (≈ 2.37 µg/mL)
- MIC50 (V. cholerae O395 [1]; Vibrio cholerae): 3.4 ± 0.2 µM (≈ 1.61 µg/mL)
- survival of infected mice (V. cholerae wildtype): to the same extent as ampicillin
- inhibition of cholera toxin production (cholera toxin; 30 µM): 92%
- inhibition at 30 µM (cholera toxin; Vibrio cholerae, read-out: inhibition of cholera toxin production): 95%

SMILES: OCCN1CCN(CCCN2c3ccccc3Sc3ccc(Cl)cc32)CC1 [perphenazine]
- inhibition at 50 µM (V. cholerae NQR complex; 50 μM): 20 to 40%

SMILES: CN1CCN(CCCN2c3ccccc3Sc3ccc(Cl)cc32)CC1 [prochlorperazine]
- effect on growth of V. cholerae (V. cholerae O395 [1]): strong inhibitory effects
- MIC50 (V. cholerae O395 [1]; Vibrio cholerae): 24 ± 3 µM (≈ 8.97 µg/mL)

SMILES: CC(CN1c2ccccc2Sc2ccccc21)N(C)C (centres unmarked) [promethazine]
- inhibition at 50 µM (V. cholerae NQR complex; 50 μM): 20 to 40%

SMILES: CSc1ccc2c(c1)N(CCC1CCCCN1C)c1ccccc1S2 (centres unmarked) [thioridazine]
- inhibition of NDH-2 activity in membranes (NDH-2 [5]): insensitive
- inhibition of respiratory activity with NADH [9]: strong inhibitors
- respiratory activity with ubiquinol-1 (terminal oxidases): not sensitive
- effect on growth of V. cholerae (V. cholerae O395 [1]): strong inhibitory effects
- MIC50 (V. cholerae O395 [1]; Vibrio cholerae): 27 ± 2 µM (≈ 10 µg/mL)

SMILES: CN1CCN(CCCN2c3ccccc3Sc3ccc(C(F)(F)F)cc32)CC1 [trifluoperazine]
- inhibition at 50 µM (V. cholerae NQR complex; 50 μM): 20 to 40%
